In PubChem BioAssay AID2060892 (Molecular Pharmacology Branch, DTP, NCI, 2025):

Tested on: HOP-62 complex spheroids with HUVEC/MSC, viability
Experiment: Anticancer human tumor HOP-62 cell line growth inhibition [RAS];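 note: spheroids exposed to agents for seven days before readout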;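 for viability, T/C: 100% = DMSO vehicle control viability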
Conditions: for IC50: curve of first compound; for viability, T/C: stronger effect = lower value
In short: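 Multi-cell-type spheroids: tumor cells plus HUVEC endothelial cells and mesenchymal stem cells. RAS-pathway inhibitors were combined with targeted agents, each dosed in half-log steps down from clinical Cmax, or from 10 microM when Cmax was unknown.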

[1] = second compound 0.000949 µM, first compound 0.0316 µM
[2] = second compound 0.000949 µM, first compound 0.1 µM
[3] = second compound 0.000949 µM, first compound 0.316 µM
[4] = second compound 0.000949 µM, first compound 1 µM
[5] = second compound 0.003 µM, first compound 0.0316 µM
[6] = second compound 0.003 µM, first compound 0.1 µM
[7] = second compound 0.003 µM, first compound 0.316 µM
[8] = second compound 0.003 µM, first compound 1 µM
[9] = second compound 0.00949 µM, first compound 0.0316 µM
[10] = second compound 0.00949 µM, first compound 0.1 µM
[11] = second compound 0.00949 µM, first compound 0.316 µM
[12] = second compound 0.00949 µM, first compound 1 µM
[13] = second compound 0.03 µM, first compound 0.0316 µM
[14] = second compound 0.03 µM, first compound 0.1 µM
[15] = second compound 0.03 µM, first compound 0.316 µM
[16] = second compound 0.03 µM, first compound 1 µM
[17] = second compound 0.0949 µM, first compound 0.0316 µM
[18] = second compound 0.0949 µM, first compound 0.1 µM
[19] = second compound 0.0949 µM, first compound 0.316 µM
[20] = second compound 0.0949 µM, first compound 1 µM
[21] = second compound 0.3 µM, first compound 0.0316 µM
[22] = second compound 0.3 µM, first compound 0.1 µM
[23] = second compound 0.3 µM, first compound 0.316 µM
[24] = second compound 0.3 µM, first compound 1 µM

Compound `CC(=O)OC12COC1CC(O)C1(C)C(=O)C(O)C3=C(C)C(OC(=O)C(O)C(NC(=O)OC(C)(C)C)c4ccccc4)CC(O)(C(OC(=O)c4ccccc4)C21)C3(C)C` (stereo unspecified) + CCn1c(-c2cc(N3CCN(C)CC3)cnc2C(C)OC)c2c3cc(ccc31)-c1csc(n1)CC(NC(=O)C1CC1C)C(=O)N1CCCC(N1)C(=O)OCC(C)(C)C2 has an IC50 (second compound 0.000949 µM) of less than 31.6 nM, an IC50 (second compound 0.003 µM) of less than 31.6 nM and an IC50 (second compound 0.00949 µM) of less than 31.6 nM. It also gave an IC50 (second compound 0.03 µM) of less than 31.6 nM, an IC50 (second compound 0.0949 µM) of less than 31.6 nM and an IC50 (second compound 0.3 µM) of less than 31.6 nM. It also gave a viability, T/C [1] of 41.1%, a viability, T/C [2] of 34.9% and a viability, T/C [3] of 28.9%. For the same compound, the viability, T/C [4] was 43.6%, the viability, T/C (second compound 0.000949 µM, first compound 3.16 µM) was 42.7% and the viability, T/C (second compound 0.000949 µM, first compound 10 µM) was 42.6%. For the same compound, the viability, T/C [5] was 44.1%, the viability, T/C [6] was 38.5% and the viability, T/C [7] was 33.4%. For the same compound, the viability, T/C [8] was 30.6%, the viability, T/C (second compound 0.003 µM, first compound 3.16 µM) was 36.6% and the viability, T/C (second compound 0.003 µM, first compound 10 µM) was 35%. For the same compound, the viability, T/C [9] was 42.4%, the viability, T/C [10] was 28.5% and the viability, T/C [11] was 31.5%. It also gave a viability, T/C [12] of 37%, a viability, T/C (second compound 0.00949 µM, first compound 3.16 µM) of 35.9% and a viability, T/C (second compound 0.00949 µM, first compound 10 µM) of 33.4%. It also gave a viability, T/C [13] of 44.1%, a viability, T/C [14] of 35.1% and a viability, T/C [15] of 31.1%. It also gave a viability, T/C [16] of 30.8%, a viability, T/C (second compound 0.03 µM, first compound 3.16 µM) of 30.4% and a viability, T/C (second compound 0.03 µM, first compound 10 µM) of 40.1%. It also gave a viability, T/C [17] of 32.3%, a viability, T/C [18] of 33.6% and a viability, T/C [19] of 31.5%. It also gave a viability, T/C [20] of 32.9%, a viability, T/C (second compound 0.0949 µM, first compound 3.16 µM) of 33.6% and a viability, T/C (second compound 0.0949 µM, first compound 10 µM) of 32.6%. It also gave a viability, T/C [21] of 37%, a viability, T/C [22] of 30.9% and a viability, T/C [23] of 39%. The viability, T/C [24] was 31.7%, the viability, T/C (second compound 0.3 µM, first compound 3.16 µM) was 27.9% and the viability, T/C (second compound 0.3 µM, first compound 10 µM) was 35.6%.

For `CCc1c2c(nc3ccc(O)cc13)-c1cc3c(c(=O)n1C2)COC(=O)[C@]3(O)CC` + CCn1c(-c2cc(N3CCN(C)CC3)cnc2C(C)OC)c2c3cc(ccc31)-c1csc(n1)CC(NC(=O)C1CC1C)C(=O)N1CCCC(N1)C(=O)OCC(C)(C)C2, the IC50 (second compound 0.000949 µM) was 1.77 nM, the IC50 (second compound 0.003 µM) was 1.54 nM and the IC50 (second compound 0.00949 µM) was 1.14 nM. The IC50 (second compound 0.03 µM) was less than 0.949 nM, the IC50 (second compound 0.0949 µM) was less than 0.949 nM and the IC50 (second compound 0.3 µM) was less than 0.949 nM. For the same compound, the viability, T/C (second compound 0.000949 µM, first compound 0.000949 µM) was 83.8%, the viability, T/C (second compound 0.000949 µM, first compound 0.003 µM) was 21.2% and the viability, T/C (second compound 0.000949 µM, first compound 0.00949 µM) was 9.03%. It also gave a viability, T/C (second compound 0.000949 µM, first compound 0.03 µM) of 7.89%, a viability, T/C (second compound 0.000949 µM, first compound 0.0949 µM) of 5.5% and a viability, T/C (second compound 0.000949 µM, first compound 0.3 µM) of 1.91%. The viability, T/C (second compound 0.003 µM, first compound 0.000949 µM) was 72.3%, the viability, T/C (second compound 0.003 µM, first compound 0.003 µM) was 18.9% and the viability, T/C (second compound 0.003 µM, first compound 0.00949 µM) was 13.3%. For the same compound, the viability, T/C (second compound 0.003 µM, first compound 0.03 µM) was 11.4%, the viability, T/C (second compound 0.003 µM, first compound 0.0949 µM) was 7.41% and the viability, T/C (second compound 0.003 µM, first compound 0.3 µM) was 4.35%. For the same compound, the viability, T/C (second compound 0.00949 µM, first compound 0.000949 µM) was 55.1%, the viability, T/C (second compound 0.00949 µM, first compound 0.003 µM) was 25.2% and the viability, T/C (second compound 0.00949 µM, first compound 0.00949 µM) was 17.4%. It also gave a viability, T/C (second compound 0.00949 µM, first compound 0.03 µM) of 13.7%, a viability, T/C (second compound 0.00949 µM, first compound 0.0949 µM) of 11.1% and a viability, T/C (second compound 0.00949 µM, first compound 0.3 µM) of 9.59%. It also gave a viability, T/C (second compound 0.03 µM, first compound 0.000949 µM) of 45.6%, a viability, T/C (second compound 0.03 µM, first compound 0.003 µM) of 32% and a viability, T/C (second compound 0.03 µM, first compound 0.00949 µM) of 21.1%. For the same compound, the viability, T/C (second compound 0.03 µM, first compound 0.03 µM) was 15.6%, the viability, T/C (second compound 0.03 µM, first compound 0.0949 µM) was 13.1% and the viability, T/C (second compound 0.03 µM, first compound 0.3 µM) was 13.2%. The viability, T/C (second compound 0.0949 µM, first compound 0.000949 µM) was 34.5%, the viability, T/C (second compound 0.0949 µM, first compound 0.003 µM) was 32.5% and the viability, T/C (second compound 0.0949 µM, first compound 0.00949 µM) was 19.7%. The viability, T/C (second compound 0.0949 µM, first compound 0.03 µM) was 14.7%, the viability, T/C (second compound 0.0949 µM, first compound 0.0949 µM) was 12.9% and the viability, T/C (second compound 0.0949 µM, first compound 0.3 µM) was 13.6%. The viability, T/C (second compound 0.3 µM, first compound 0.000949 µM) was 37.8%, the viability, T/C (second compound 0.3 µM, first compound 0.003 µM) was 25.2% and the viability, T/C (second compound 0.3 µM, first compound 0.00949 µM) was 18.5%. It also gave a viability, T/C (second compound 0.3 µM, first compound 0.03 µM) of 15.8%, a viability, T/C (second compound 0.3 µM, first compound 0.0949 µM) of 21.9% and a viability, T/C (second compound 0.3 µM, first compound 0.3 µM) of 15.8%.

`Nc1ccn(C2OC(CO)C(O)C2(F)F)c(=O)n1` (stereo unspecified) + CCn1c(-c2cc(N3CCN(C)CC3)cnc2C(C)OC)c2c3cc(ccc31)-c1csc(n1)CC(NC(=O)C1CC1C)C(=O)N1CCCC(N1)C(=O)OCC(C)(C)C2 was tested, and the IC50 (second compound 0.000949 µM) was 15.7 nM, the IC50 (second compound 0.003 µM) was 12.9 nM and the IC50 (second compound 0.00949 µM) was 12 nM. The IC50 (second compound 0.03 µM) was 10.6 nM, the IC50 (second compound 0.0949 µM) was less than 3.16 nM and the IC50 (second compound 0.3 µM) was less than 3.16 nM. It also gave a viability, T/C (second compound 0.000949 µM, first compound 0.00316 µM) of 121%, a viability, T/C (second compound 0.000949 µM, first compound 0.01 µM) of 71.2% and a viability, T/C [1] of 16.9%. It also gave a viability, T/C [2] of 12.5%, a viability, T/C [3] of 9.82% and a viability, T/C [4] of 5.86%. For the same compound, the viability, T/C (second compound 0.003 µM, first compound 0.00316 µM) was 93.9%, the viability, T/C (second compound 0.003 µM, first compound 0.01 µM) was 56% and the viability, T/C [5] was 29.5%. The viability, T/C [6] was 19.4%, the viability, T/C [7] was 14.9% and the viability, T/C [8] was 8.45%. For the same compound, the viability, T/C (second compound 0.00949 µM, first compound 0.00316 µM) was 68.1%, the viability, T/C (second compound 0.00949 µM, first compound 0.01 µM) was 52.5% and the viability, T/C [9] was 36.2%. The viability, T/C [10] was 26.6%, the viability, T/C [11] was 17.5% and the viability, T/C [12] was 17.3%. It also gave a viability, T/C (second compound 0.03 µM, first compound 0.00316 µM) of 60.4%, a viability, T/C (second compound 0.03 µM, first compound 0.01 µM) of 49.2% and a viability, T/C [13] of 40.3%. For the same compound, the viability, T/C [14] was 31%, the viability, T/C [15] was 20.8% and the viability, T/C [16] was 25.1%. For the same compound, the viability, T/C (second compound 0.0949 µM, first compound 0.00316 µM) was 45.6%, the viability, T/C (second compound 0.0949 µM, first compound 0.01 µM) was 38.4% and the viability, T/C [17] was 35.6%. The viability, T/C [18] was 28.9%, the viability, T/C [19] was 23.9% and the viability, T/C [20] was 27.4%. For the same compound, the viability, T/C (second compound 0.3 µM, first compound 0.00316 µM) was 43.5%, the viability, T/C (second compound 0.3 µM, first compound 0.01 µM) was 38.8% and the viability, T/C [21] was 39.7%. The viability, T/C [22] was 25.9%, the viability, T/C [23] was 25.9% and the viability, T/C [24] was 31.7%.
